Assay results from ChEMBL document CHEMBL1255420, “Fluoroquinolone resistance in Streptococcus dysgalactiae subsp. equisimilis and evidence for a shared global gene pool with Streptococcus pyogenes” (2010).

Experiments:
[1] = tested on: Streptococcus dysgalactiae subsp. equisimilis; assay: Antibacterial activity against gyrA04, parC allele containing Streptococcus dysgalactiae subsp. equisimilis with GyrA S81F, S79F mutant by CLSI […] method; format: functional
[2] = tested on: Streptococcus dysgalactiae subsp. equisimilis; assay: Antibacterial activity against gyrA04, parC15 allele containing Streptococcus dysgalactiae subsp. equisimilis with GyrA S81F, S79F/ParC N91D mutant by CLSI […] method; format: functional
[3] = tested on: Streptococcus dysgalactiae subsp. equisimilis; assay: Antibacterial activity against gyrA04, parC17 allele containing Streptococcus dysgalactiae subsp. equisimilis with GyrA S81F, S79F/ParC N91D, P140S mutant by CLSI […] method; format: functional
[4] = tested on: Streptococcus dysgalactiae subsp. equisimilis; assay: Antibacterial activity against gyrA03, parC08 allele containing Streptococcus dysgalactiae subsp. equisimilis with GyrA E85K, S79F mutant by CLSI […] method; format: functional
[5] = tested on: Streptococcus dysgalactiae subsp. equisimilis; assay: Antibacterial activity against gyrA03, parC06 allele containing Streptococcus dysgalactiae subsp. equisimilis with GyrA E85K, S79Y mutant by CLSI […] method; format: functional
[6] = tested on: Streptococcus dysgalactiae subsp. equisimilis; assay: Antibacterial activity against gyrA04, parC09 allele containing Streptococcus dysgalactiae subsp. equisimilis with GyrA S81F/ParC D83N mutant by CLSI […] method; format: functional
[7] = tested on: Streptococcus dysgalactiae subsp. equisimilis; assay: Antibacterial activity against gyrA04, parC13 allele containing Streptococcus dysgalactiae subsp. equisimilis with GyrA S81F, S79A mutant by CLSI […] method; format: functional
[8] = tested on: Streptococcus dysgalactiae subsp. equisimilis; assay: Antibacterial activity against gyrA03, parC10 allele containing Streptococcus dysgalactiae subsp. equisimilis with GyrA E85K/ParC D83G mutant by CLSI […] method; format: functional
[9] = tested on: Streptococcus dysgalactiae subsp. equisimilis; assay: Antibacterial activity against gyrA04, parC14 allele containing Streptococcus dysgalactiae subsp. equisimilis with GyrA S81F/ParC N91D mutant by CLSI […] method; format: functional
[10] = tested on: Streptococcus dysgalactiae subsp. equisimilis; assay: Antibacterial activity against gyrA01, parC04 allele containing Streptococcus dysgalactiae subsp. equisimilis with GyrA S79F mutant by CLSI […] method; format: functional
[11] = tested on: Streptococcus dysgalactiae subsp. equisimilis; assay: Antibacterial activity against gyrA01, parC17 allele containing Streptococcus dysgalactiae subsp. equisimilis with GyrA S79F, S79F/ParC N91D, P140S mutant by CLSI […] method; format: functional
[12] = tested on: Streptococcus dysgalactiae subsp. equisimilis; assay: Antibacterial activity against gyrA01, parC19 allele containing Streptococcus dysgalactiae subsp. equisimilis with GyrA S79A/ParC N91D, P140S mutant by CLSI […] method; format: functional
[13] = tested on: Streptococcus dysgalactiae subsp. equisimilis; assay: Antibacterial activity against gyrA01, parC12 allele containing Streptococcus dysgalactiae subsp. equisimilis with ParC G166E mutant by CLSI […] method; format: functional
[14] = tested on: Streptococcus dysgalactiae subsp. equisimilis; assay: Antibacterial activity against gyrA01, parC03 allele containing Streptococcus dysgalactiae subsp. equisimilis with GyrA S79P mutant by CLSI […] method; format: functional
[15] = tested on: Streptococcus dysgalactiae subsp. equisimilis; assay: Antibacterial activity against gyrA01, parC allele containing Streptococcus dysgalactiae subsp. equisimilis with ParC N91D, P140S mutant by CLSI […] method; format: functional
[16] = tested on: Streptococcus dysgalactiae subsp. equisimilis; assay: Antibacterial activity against gyrA01, parC14 allele containing Streptococcus dysgalactiae subsp. equisimilis with ParC N91D mutant by CLSI […] method; format: functional
[17] = tested on: Streptococcus dysgalactiae subsp. equisimilis; assay: Antibacterial activity against gyrA05, parC05 allele containing Streptococcus dysgalactiae subsp. equisimilis with GyrA D142N mutant by CLSI […] method; format: functional
[18] = tested on: Streptococcus dysgalactiae subsp. equisimilis; assay: Antibacterial activity against gyrA01, parC allele containing Streptococcus dysgalactiae subsp. equisimilis by CLSI […] method; format: functional
[19] = tested on: Streptococcus dysgalactiae subsp. equisimilis; assay: Antibacterial activity against gyrA02, parC17 allele containing Streptococcus dysgalactiae subsp. equisimilis with GyrA S81Y, S79F/ParC N91D, P140S mutant by CLSI […] method

## C[C@H]1COc2c(N3CCN(C)CC3)c(F)cc3c(=O)c(C(=O)O)cn1c23.C[C@H]1COc2c(N3CCN(C)CC3)c(F)cc3c(=O)c(C(=O)O)cn1c23.O [LEVOFLOXACIN]
[1]
  MIC: > 32 µg/mL
[2]
  MIC: > 32 µg/mL
[3]
  MIC: > 32 µg/mL
[4]
  MIC: > 32 µg/mL
[5]
  MIC: > 32 µg/mL
[6]
  MIC: > 8 µg/mL
[7]
  MIC: 12 µg/mL
[8]
  MIC: 8 µg/mL
[9]
  MIC: 4 µg/mL
[10]
  MIC: 3 µg/mL
[11]
  MIC: 1.5 µg/mL
[12]
  MIC: 2 µg/mL
[13]
  MIC: 1 µg/mL
[14]
  MIC: 0.75 µg/mL
[15]
  MIC: 0.19 µg/mL
[16]
  MIC: 0.5 µg/mL
[17]
  MIC: 0.38 µg/mL
[18]
  MIC: 0.38 µg/mL
[19]
  MIC: > 32 µg/mL
